Assay results taken from ChEMBL document CHEMBL1909046, “DrugMatrix in vitro pharmacology data”.

Assays:
[1] = DRUGMATRIX: Serotonin (5-Hydroxytryptamine) 5-HT3 radioligand binding (ligand: [3H] GR-65630); assay type: cell membranes, Membrane; conditions: hek293; Not Active = under 50% inhibition at 10 µM
[2] = biological target: T1, 3-hydroxy-3-methylglutaryl-coenzyme A reductase (Homo sapiens, UniProt P04035); design: species or system Escherichia coli;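 note: enzyme inhibition assay of HMG-CoA reductase using radiolabeled [14C]HMG-CoA as substrate; in other assays of this panel Not Active means under 50% inhibition at 10 µM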
T1 sequence (P04035 whole entry): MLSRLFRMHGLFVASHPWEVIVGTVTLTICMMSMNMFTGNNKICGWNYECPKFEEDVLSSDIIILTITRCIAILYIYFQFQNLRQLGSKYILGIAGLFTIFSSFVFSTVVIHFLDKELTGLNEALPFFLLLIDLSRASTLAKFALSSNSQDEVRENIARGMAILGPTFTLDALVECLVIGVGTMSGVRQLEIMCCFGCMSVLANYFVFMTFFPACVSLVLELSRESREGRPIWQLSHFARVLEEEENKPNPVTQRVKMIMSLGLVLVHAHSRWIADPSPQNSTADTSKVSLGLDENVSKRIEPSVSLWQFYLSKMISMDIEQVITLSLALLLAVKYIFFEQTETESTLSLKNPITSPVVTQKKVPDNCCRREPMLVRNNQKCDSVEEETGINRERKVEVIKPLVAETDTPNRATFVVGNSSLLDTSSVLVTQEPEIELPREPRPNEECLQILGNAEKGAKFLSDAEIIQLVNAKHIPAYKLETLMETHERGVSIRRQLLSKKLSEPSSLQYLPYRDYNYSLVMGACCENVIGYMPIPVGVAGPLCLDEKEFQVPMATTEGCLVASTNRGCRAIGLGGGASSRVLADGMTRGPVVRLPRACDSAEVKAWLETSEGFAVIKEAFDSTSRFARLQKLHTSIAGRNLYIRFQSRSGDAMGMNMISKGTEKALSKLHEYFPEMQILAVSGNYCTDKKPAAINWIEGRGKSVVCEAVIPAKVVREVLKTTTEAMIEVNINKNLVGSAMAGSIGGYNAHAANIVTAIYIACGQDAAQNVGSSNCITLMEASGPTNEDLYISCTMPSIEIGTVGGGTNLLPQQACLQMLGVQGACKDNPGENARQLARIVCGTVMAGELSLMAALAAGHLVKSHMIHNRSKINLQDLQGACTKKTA

[3] = biological target: T2, C-X-C chemokine receptor type 1 (Homo sapiens, UniProt P25024); note: in other assays of this panel Not Active means under 50% inhibition at 10 µM
T2 sequence (P25024 whole entry): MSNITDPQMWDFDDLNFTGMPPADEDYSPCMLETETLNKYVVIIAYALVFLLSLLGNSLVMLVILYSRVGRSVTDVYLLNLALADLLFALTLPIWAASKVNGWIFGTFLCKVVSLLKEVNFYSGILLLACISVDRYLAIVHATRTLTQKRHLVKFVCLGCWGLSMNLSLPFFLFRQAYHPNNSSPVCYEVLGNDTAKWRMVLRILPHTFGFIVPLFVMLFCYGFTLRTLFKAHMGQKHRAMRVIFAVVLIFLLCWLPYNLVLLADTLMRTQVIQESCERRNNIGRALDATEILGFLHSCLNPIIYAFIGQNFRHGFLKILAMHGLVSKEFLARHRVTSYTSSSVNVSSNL

[4] = biological target: T3, Vasoactive intestinal polypeptide receptor 1 (Homo sapiens, UniProt P32241); assay type: cell membranes, Membrane; conditions: ht-29; note: in other assays of this panel Not Active means under 50% inhibition at 10 µM
T3 sequence (P32241 whole entry): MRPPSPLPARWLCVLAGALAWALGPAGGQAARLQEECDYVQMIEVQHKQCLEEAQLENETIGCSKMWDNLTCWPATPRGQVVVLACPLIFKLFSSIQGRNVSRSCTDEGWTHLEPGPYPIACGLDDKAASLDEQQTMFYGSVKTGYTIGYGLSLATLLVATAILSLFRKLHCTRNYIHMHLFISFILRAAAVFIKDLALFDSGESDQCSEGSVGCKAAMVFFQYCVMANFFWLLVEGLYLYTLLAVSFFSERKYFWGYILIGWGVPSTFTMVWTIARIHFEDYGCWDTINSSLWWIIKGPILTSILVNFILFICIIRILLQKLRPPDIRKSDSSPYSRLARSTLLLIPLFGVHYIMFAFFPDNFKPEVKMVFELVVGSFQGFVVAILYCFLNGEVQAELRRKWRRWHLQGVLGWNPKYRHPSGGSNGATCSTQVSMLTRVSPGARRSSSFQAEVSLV

[5] = biological target: 5-hydroxytryptamine receptor 1B (Rattus norvegicus, UniProt P28564); assay type: cell membranes, Wistar, Cerebral cortex, Membrane; note: in other assays of this panel Not Active means under 50% inhibition at 10 µM
[6] = biological target: Receptor tyrosine-protein kinase erbB-2 (Homo sapiens, UniProt P04626); experiment: biochemical; assay type: cell-based, Insect cells; conditions: insect cells
[7] = biological target: T4, Cathepsin G (Homo sapiens, UniProt P08311); assay type: tissue-based; conditions: neutrophil
T4 sequence (P08311 whole entry): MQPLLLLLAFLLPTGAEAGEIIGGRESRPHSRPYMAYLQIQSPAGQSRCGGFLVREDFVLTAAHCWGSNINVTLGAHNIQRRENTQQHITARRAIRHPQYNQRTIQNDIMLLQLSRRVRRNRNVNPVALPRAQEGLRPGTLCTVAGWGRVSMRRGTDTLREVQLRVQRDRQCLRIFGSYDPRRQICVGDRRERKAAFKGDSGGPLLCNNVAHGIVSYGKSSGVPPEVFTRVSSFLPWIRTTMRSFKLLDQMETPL

[8] = biological target: T5, Alpha-2C adrenergic receptor (Homo sapiens, UniProt P18825); experiment: DRUGMATRIX: Adrenergic Alpha-2C radioligand binding (ligand: [3H] MK-912); assay type: cell membranes, Sf9, Membrane; conditions: sf9
T5 sequence (P18825 whole entry): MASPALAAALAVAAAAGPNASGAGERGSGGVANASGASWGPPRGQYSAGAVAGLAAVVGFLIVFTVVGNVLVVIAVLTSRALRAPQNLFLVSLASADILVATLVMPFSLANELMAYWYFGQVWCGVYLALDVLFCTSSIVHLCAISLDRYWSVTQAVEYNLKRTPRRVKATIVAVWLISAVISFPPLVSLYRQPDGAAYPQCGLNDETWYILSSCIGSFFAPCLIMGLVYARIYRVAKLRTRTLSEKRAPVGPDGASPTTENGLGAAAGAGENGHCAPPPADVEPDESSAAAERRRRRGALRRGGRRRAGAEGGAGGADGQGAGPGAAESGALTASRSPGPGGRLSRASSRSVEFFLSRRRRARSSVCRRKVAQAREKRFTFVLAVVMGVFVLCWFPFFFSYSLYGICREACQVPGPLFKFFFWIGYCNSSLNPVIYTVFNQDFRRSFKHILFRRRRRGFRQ

[9] = DRUGMATRIX: Atrial Natriuretic Factor (ANF) radioligand binding (ligand: [125I] ANF (rat)); assay type: cell membranes, Cavia porcellus, Dunkin-Hartley, Adrenal gland, Membrane; conditions: Not Active = under 50% inhibition at 10 µM

Receptor tyrosine-protein kinase erbB-2, sequence (P04626 whole entry): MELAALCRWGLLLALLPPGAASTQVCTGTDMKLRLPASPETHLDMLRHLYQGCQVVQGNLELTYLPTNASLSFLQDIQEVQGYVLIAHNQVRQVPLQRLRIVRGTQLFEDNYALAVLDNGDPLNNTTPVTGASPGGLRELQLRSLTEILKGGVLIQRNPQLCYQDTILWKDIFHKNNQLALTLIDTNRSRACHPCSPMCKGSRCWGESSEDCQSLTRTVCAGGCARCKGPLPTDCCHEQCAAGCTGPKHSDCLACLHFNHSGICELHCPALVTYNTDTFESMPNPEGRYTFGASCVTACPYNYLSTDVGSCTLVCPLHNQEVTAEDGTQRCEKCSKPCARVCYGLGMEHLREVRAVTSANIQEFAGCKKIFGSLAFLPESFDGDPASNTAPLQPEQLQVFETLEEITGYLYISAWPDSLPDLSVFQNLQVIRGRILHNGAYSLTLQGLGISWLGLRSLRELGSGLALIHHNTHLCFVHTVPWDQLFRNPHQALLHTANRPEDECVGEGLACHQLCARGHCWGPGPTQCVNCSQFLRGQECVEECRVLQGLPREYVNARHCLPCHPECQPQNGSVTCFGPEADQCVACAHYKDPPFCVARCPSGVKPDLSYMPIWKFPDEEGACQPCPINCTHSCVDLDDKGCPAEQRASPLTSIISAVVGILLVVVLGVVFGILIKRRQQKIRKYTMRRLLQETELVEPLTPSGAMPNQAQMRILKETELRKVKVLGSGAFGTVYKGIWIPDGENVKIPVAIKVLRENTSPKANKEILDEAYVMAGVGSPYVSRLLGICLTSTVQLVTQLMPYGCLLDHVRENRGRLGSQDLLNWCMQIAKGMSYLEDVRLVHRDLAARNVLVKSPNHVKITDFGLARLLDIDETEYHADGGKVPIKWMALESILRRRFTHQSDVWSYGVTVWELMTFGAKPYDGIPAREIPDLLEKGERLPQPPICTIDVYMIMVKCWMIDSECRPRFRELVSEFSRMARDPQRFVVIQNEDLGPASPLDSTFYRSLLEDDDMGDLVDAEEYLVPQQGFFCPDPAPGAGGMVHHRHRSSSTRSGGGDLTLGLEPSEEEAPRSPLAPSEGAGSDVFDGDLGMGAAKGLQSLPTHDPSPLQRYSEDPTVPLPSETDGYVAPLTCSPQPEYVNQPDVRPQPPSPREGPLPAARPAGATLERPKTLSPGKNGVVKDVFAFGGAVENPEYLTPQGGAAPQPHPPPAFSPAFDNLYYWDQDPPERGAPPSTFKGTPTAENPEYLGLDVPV
5-hydroxytryptamine receptor 1B, sequence (P28564 whole entry): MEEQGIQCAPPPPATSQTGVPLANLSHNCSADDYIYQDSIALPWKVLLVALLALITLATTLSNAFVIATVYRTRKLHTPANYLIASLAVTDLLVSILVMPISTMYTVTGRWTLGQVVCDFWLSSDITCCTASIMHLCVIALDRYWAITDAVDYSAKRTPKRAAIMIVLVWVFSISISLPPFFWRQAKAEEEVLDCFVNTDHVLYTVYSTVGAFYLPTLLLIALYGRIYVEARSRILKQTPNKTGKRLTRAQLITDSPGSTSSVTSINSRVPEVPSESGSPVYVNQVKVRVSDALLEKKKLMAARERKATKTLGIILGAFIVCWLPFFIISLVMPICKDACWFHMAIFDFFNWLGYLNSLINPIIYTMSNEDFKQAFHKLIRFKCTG

COC(=O)C1=C(C)NC(C)=C(C(=O)OC)C1c1ccccc1[N+](=O)[O-] [NIFEDIPINE]
Not Active: IC50 [1] | Ki [1] | IC50 [2] | IC50 [3] | IC50 [4] | IC50 [5] | IC50 [6] | IC50 [7] | IC50 [8] | IC50 [9] | Ki [9]

NNc1ccccc1 [PHENYLHYDRAZINE]
Not Active: IC50 [1] | Ki [1] | IC50 [2] | IC50 [3] | IC50 [4] | IC50 [5] | IC50 [6] | IC50 [7] | IC50 [8] | IC50 [9] | Ki [9]

CC(=O)[C@H]1CC[C@H]2[C@@H]3CCC4=CC(=O)CC[C@]4(C)[C@H]3CC[C@]12C [PROGESTERONE]
Not Active: IC50 [1] | Ki [1] | IC50 [2] | IC50 [3] | IC50 [4] | IC50 [5] | IC50 [6] | IC50 [7] | IC50 [8] | IC50 [9] | Ki [9]

NC(=O)c1ncn([C@@H]2O[C@H](CO)[C@@H](O)[C@H]2O)n1 [RIBAVIRIN]
Not Active: IC50 [1] | Ki [1] | IC50 [2] | IC50 [3] | IC50 [4] | IC50 [5] | IC50 [6] | IC50 [7] | IC50 [8] | IC50 [9] | Ki [9]

O=[N+]([O-])c1cc([As](=O)(O)O)ccc1O [ROXARSONE]
Not Active: IC50 [1] | Ki [1] | IC50 [2] | Ki [2] | IC50 [3] | Ki [3] | IC50 [4] | Ki [4] | IC50 [5] | Ki [5] | IC50 [6] | Ki [6] | IC50 [7] | Ki [7] | IC50 [8] | Ki [8] | IC50 [9] | Ki [9]

CC[C@H]1OC(=O)[C@H](C)[C@@H](O[C@H]2C[C@@](C)(OC)[C@@H](O)[C@H](C)O2)[C@H](C)[C@@H](O[C@@H]2O[C@H](C)C[C@H](N(C)C)[C@H]2O)[C@](C)(O)C[C@@H](C)/C(=N\OCOCCOC)[C@H](C)[C@@H](O)[C@]1(C)O [ROXITHROMYCIN]
Not Active: IC50 [1] | Ki [1] | IC50 [2] | IC50 [3] | IC50 [4] | IC50 [5] | IC50 [6] | IC50 [7] | IC50 [8] | IC50 [9] | Ki [9]

NC(=O)c1ccccc1O [SALICYLAMIDE]
Not Active: IC50 [1] | Ki [1] | IC50 [2] | IC50 [3] | IC50 [4] | IC50 [5] | IC50 [6] | IC50 [7] | IC50 [8] | IC50 [9] | Ki [9]

Cc1ncc([N+](=O)[O-])n1CC(C)O (stereo not drawn) [SECNIDAZOLE]
Not Active: IC50 [1] | Ki [1] | IC50 [2] | IC50 [3] | IC50 [4] | IC50 [5] | IC50 [6] | IC50 [7] | IC50 [8] | IC50 [9] | Ki [9]

CN[C@@H]1[C@@H](O)[C@@H](O[C@@H]2[C@@H](O)[C@H](O[C@H]3OC(CN)=CC[C@H]3N)[C@@H](N)C[C@H]2N)OC[C@]1(C)O [SISOMICIN]
Not Active: IC50 [1] | Ki [1] | IC50 [2] | IC50 [3] | IC50 [4] | IC50 [5] | IC50 [6] | IC50 [7] | IC50 [8] | IC50 [9] | Ki [9]

CC(=O)S[C@@H]1CC2=CC(=O)CC[C@]2(C)[C@H]2CC[C@@]3(C)[C@@H](CC[C@@]34CCC(=O)O4)[C@H]12 [SPIRONOLACTONE]
Not Active: IC50 [1] | Ki [1] | IC50 [2] | IC50 [3] | IC50 [4] | IC50 [5] | IC50 [6] | IC50 [7] | IC50 [8] | IC50 [9] | Ki [9]

C[C@]12Cc3c[nH]nc3C[C@@H]1CC[C@@H]1[C@@H]2CC[C@@]2(C)[C@H]1CC[C@]2(C)O [STANOZOLOL]
Not Active: IC50 [1] | Ki [1] | IC50 [2] | IC50 [3] | IC50 [4] | IC50 [5] | IC50 [6] | IC50 [7] | IC50 [8] | IC50 [9] | Ki [9]
